From patent US20040266623A1, “SYNERGISTIC QUINCLORAC HERBICIDAL COMPOSITIONS” (priority 2003, published 2004)

Experiments:
Assay in all cases: Greenhouse pot test, postemergent spray, visual control rating converted to percent control
Type in all cases: in vivo
white clover = system: white clover
Experimental: (§1) Pots of crabgrass, dandelion, white clover, and plantain grown in greenhouse soiless growth media were sprayed with a greenhouse pot sprayer at 43.46 gallons of spray solution/acre and allowed to stand in the greenhouse. Visual observation of the effects made by the herbicidal compositions on the plants in the test pots was recorded for control of crabgrass, dandelion, clover and plantain at 24 hours after treatment (HAT), 48 hours after treatment (HAT), 72 hours after treatment (HAT), 7 days after treatment (DAT), 14 days after treatment (DAT) and 21 days after treatment (DAT). A control rating scale of 1 to 9 was used to record the visual observation of the effect of the herbicidal composition on the plants over the time period of the tests. 1=no control, and 9=death of plant, with intervening numbers representing successive degrees of observed effectiveness of the herbicidal composition over time. The 1-9 control rating scale was converted to percent control in the test data charts that follow.
(§2) The test protocol of S. R. Colby as set out in his article entitled “Calculating Synergistic and Antagonistic Responses of Herbicide Compositions,” received for publication Apr. 11, 1966, Contribution No. 3796 and Scientific Article No. 1271 of the Maryland Agricultural Experiment Station, Department pf Agronomy, University of Maryland was followed to evaluate the synergistic properties of the combination of quinclorac plus a herbicidal protox inhibitor, and a combination of quinclorac, plus a herbicidal protox inhibitor plus a herbicidal auxinic agent as compared with the individual herbicides, using Colby's formulas E=X+Y−XY/100 for a two herbicide combination, where E=the expected percent of inhibition of growth by herbicides, X=the percent inhibition of growth by herbicide A at p lb/A, and Y=the percent inhibition of growth by herbicide B at q lb/A, for a given combination of two herbicides. Colby's formula E=X+Y+Z−(XY+XZ+YZ)/100+XYZ/10,000, was used for the three-way herbicide combination evaluation, where E, X and Y are the same as in the two herbicide formula and Z=the percent inhibition of growth by the third herbicide.

dandelion = system: dandelion
Experimental: as §1, §2

crabgrass = system: crabgrass
Experimental: as §1, §2

plantain = conditions: for Control (1-9) Plantain: scale 1=no control, 9=death of plant
Experimental: as §1, §2

[1] = Test 4, 24 HAT, scale 1=no control, 9=death of plant
[2] = Test 4, 72 HAT, scale 1=no control, 9=death of plant

CC(C)CCCCCOC(=O)COc1ccc(Cl)cc1Cl [2,4-D IOE]
% Control Clover (white clover; Test 1, 7 DAT, 0.70 lbs/A): 44.4% | Control (1-9) Clover (white clover; Test 1, 7 DAT, 0.70 lbs/A): 4 | % Control Clover (white clover; Test 1, 14 DAT, 0.70 lbs/A): 88.9% | Control (1-9) Clover (white clover; Test 1, 14 DAT, 0.70 lbs/A): 8 | % Control Clover (white clover; Test 1, 24 HAT, 0.70 lbs/A): 11.1% | Control (1-9) Clover (white clover; Test 1, 24 HAT, 0.70 lbs/A): 1 | % Control Clover (white clover; Test 1, 48 HAT, 0.70 lbs/A): 44.4% | Control (1-9) Clover (white clover; Test 1, 48 HAT, 0.70 lbs/A): 4 | % Control Clover (white clover; Test 2, 7 DAT, 0.70 lbs/A): 66.7% | Control (1-9) Clover (white clover; Test 2, 7 DAT, 0.70 lbs/A): 6 | % Control Clover (white clover; Test 2, 14 DAT, 0.70 lbs/A): 100.0% | Control (1-9) Clover (white clover; Test 2, 14 DAT, 0.70 lbs/A): 9 | % Control Clover (white clover; Test 2, 24 HAT, 0.70 lbs/A): 33.3% | Control (1-9) Clover (white clover; Test 2, 24 HAT, 0.70 lbs/A): 3 | % Control Clover (white clover; Test 2, 72 HAT, 0.70 lbs/A): 66.7% | Control (1-9) Clover (white clover; Test 2, 72 HAT, 0.70 lbs/A): 6 | % Control Dandelion (dandelion; Test 1, 7 DAT, 0.70 lbs/A): 66.7% | Control (1-9) Dandelion (dandelion; Test 1, 7 DAT, 0.70 lbs/A): 6 | % Control Dandelion (dandelion; Test 1, 14 DAT, 0.70 lbs/A): 100.0% | Control (1-9) Dandelion (dandelion; Test 1, 14 DAT, 0.70 lbs/A): 9 | % Control Dandelion (dandelion; Test 1, 24 HAT, 0.70 lbs/A): 33.3% | Control (1-9) Dandelion (dandelion; Test 1, 24 HAT, 0.70 lbs/A): 3 | % Control Dandelion (dandelion; Test 1, 48 HAT, 0.70 lbs/A): 44.4% | Control (1-9) Dandelion (dandelion; Test 1, 48 HAT, 0.70 lbs/A): 4 | % Control Dandelion (dandelion; Test 2, 7 DAT, 0.70 lbs/A): 88.9% | Control (1-9) Dandelion (dandelion; Test 2, 7 DAT, 0.70 lbs/A): 8 | % Control Dandelion (dandelion; Test 2, 14 DAT, 0.70 lbs/A): 100.0% | Control (1-9) Dandelion (dandelion; Test 2, 14 DAT, 0.70 lbs/A): 9 | % Control Dandelion (dandelion; Test 2, 24 HAT, 0.70 lbs/A): 33.3% | Control (1-9) Dandelion (dandelion; Test 2, 24 HAT, 0.70 lbs/A): 3 | % Control Dandelion (dandelion; Test 2, 72 HAT, 0.70 lbs/A): 66.7% | Control (1-9) Dandelion (dandelion; Test 2, 72 HAT, 0.70 lbs/A): 6 | % Control Crabgrass (crabgrass; Test 1, 7 DAT, 0.70 lbs/A): 44.4% | Control (1-9) Crabgrass (crabgrass; Test 1, 7 DAT, 0.70 lbs/A): 4 | % Control Crabgrass (crabgrass; Test 1, 14 DAT, 0.70 lbs/A): 33.3% | Control (1-9) Crabgrass (crabgrass; Test 1, 14 DAT, 0.70 lbs/A): 3 | % Control Crabgrass (crabgrass; Test 1, 24 HAT, 0.70 lbs/A): 22.2% | Control (1-9) Crabgrass (crabgrass; Test 1, 24 HAT, 0.70 lbs/A): 2 | % Control Crabgrass (crabgrass; Test 1, 48 HAT, 0.70 lbs/A): 44.4% | Control (1-9) Crabgrass (crabgrass; Test 1, 48 HAT, 0.70 lbs/A): 4 | % Control Crabgrass (crabgrass; Test 2, 7 DAT, 0.70 lbs/A): 22.2% | Control (1-9) Crabgrass (crabgrass; Test 2, 7 DAT, 0.70 lbs/A): 2 | % Control Crabgrass (crabgrass; Test 2, 14 DAT, 0.70 lbs/A): 22.2% | Control (1-9) Crabgrass (crabgrass; Test 2, 14 DAT, 0.70 lbs/A): 2 | % Control Crabgrass (crabgrass; Test 2, 24 HAT, 0.70 lbs/A): 33.3% | Control (1-9) Crabgrass (crabgrass; Test 2, 24 HAT, 0.70 lbs/A): 3 | % Control Crabgrass (crabgrass; Test 2, 72 HAT, 0.70 lbs/A): 66.7% | Control (1-9) Crabgrass (crabgrass; Test 2, 72 HAT, 0.70 lbs/A): 6

Cc1nn(-c2cc(CC(Cl)C(=O)O)c(Cl)cc2F)c(=O)n1C(F)F (centres unmarked) [Carfentrazone @ 0.01 lbs/A]
% Control Clover (white clover; Test 4, 24 HAT): 22.2% | Control (1-9) Clover (white clover; [1]): 2 | % Control Clover (white clover; Test 4, 72 HAT): 44.4% | Control (1-9) Clover (white clover; [2]): 4 | % Control Dandelion (dandelion; Test 4, 24 HAT): 22.2% | Control (1-9) Dandelion (dandelion; [1]): 2 | % Control Dandelion (dandelion; Test 4, 72 HAT): 33.3% | Control (1-9) Dandelion (dandelion; [2]): 3 | % Control Plantain (plantain; Test 4, 24 HAT): 33.3% | Control (1-9) Plantain (plantain; Test 4, 24 HAT): 3 | % Control Plantain (plantain; Test 4, 72 HAT): 88.9% | Control (1-9) Plantain (plantain; Test 4, 72 HAT): 8 | % Control Crabgrass (crabgrass; Test 4, 24 HAT): 11.1% | Control (1-9) Crabgrass (crabgrass; [1]): 1 | % Control Crabgrass (crabgrass; Test 4, 72 HAT): 22.2% | Control (1-9) Crabgrass (crabgrass; [2]): 2

Cc1nn(-c2cc(CC(Cl)C(=O)O)c(Cl)cc2F)c(=O)n1C(F)F (centres unmarked) [Carfentrazone @ 0.02 lbs/A]
% Control Clover (white clover; Test 4, 24 HAT): 44.4% | Control (1-9) Clover (white clover; [1]): 4 | % Control Clover (white clover; Test 4, 72 HAT): 44.4% | Control (1-9) Clover (white clover; [2]): 4 | % Control Dandelion (dandelion; Test 4, 24 HAT): 33.3% | Control (1-9) Dandelion (dandelion; [1]): 3 | % Control Dandelion (dandelion; Test 4, 72 HAT): 55.6% | Control (1-9) Dandelion (dandelion; [2]): 5 | % Control Plantain (plantain; Test 4, 24 HAT): 33.3% | Control (1-9) Plantain (plantain; Test 4, 24 HAT): 3 | % Control Plantain (plantain; Test 4, 72 HAT): 66.7% | Control (1-9) Plantain (plantain; Test 4, 72 HAT): 6 | % Control Crabgrass (crabgrass; Test 4, 24 HAT): 11.1% | Control (1-9) Crabgrass (crabgrass; [1]): 1 | % Control Crabgrass (crabgrass; Test 4, 72 HAT): 44.4% | Control (1-9) Crabgrass (crabgrass; [2]): 4

Cc1nn(-c2cc(NS(C)(=O)=O)c(Cl)cc2Cl)c(=O)n1C(F)F [Sulfentrazone, reference compound]
% Control Clover (white clover; Test 2, 7 DAT, 0.02 lbs/A): 77.8% | Control (1-9) Clover (white clover; Test 2, 7 DAT, 0.02 lbs/A): 7 | % Control Clover (white clover; Test 2, 7 DAT, 0.03 lbs/A): 55.6% | Control (1-9) Clover (white clover; Test 2, 7 DAT, 0.03 lbs/A): 5 | % Control Clover (white clover; Test 2, 14 DAT, 0.02 lbs/A): 77.8% | Control (1-9) Clover (white clover; Test 2, 14 DAT, 0.02 lbs/A): 7 | % Control Clover (white clover; Test 2, 14 DAT, 0.03 lbs/A): 66.7% | Control (1-9) Clover (white clover; Test 2, 14 DAT, 0.03 lbs/A): 6 | % Control Clover (white clover; Test 2, 24 HAT, 0.02 lbs/A): 22.2% | Control (1-9) Clover (white clover; Test 2, 24 HAT, 0.02 lbs/A): 2 | % Control Clover (white clover; Test 2, 24 HAT, 0.03 lbs/A): 22.2% | Control (1-9) Clover (white clover; Test 2, 24 HAT, 0.03 lbs/A): 2 | % Control Clover (white clover; Test 2, 72 HAT, 0.02 lbs/A): 33.3% | Control (1-9) Clover (white clover; Test 2, 72 HAT, 0.02 lbs/A): 3 | % Control Clover (white clover; Test 2, 72 HAT, 0.03 lbs/A): 22.2% | Control (1-9) Clover (white clover; Test 2, 72 HAT, 0.03 lbs/A): 2 | % Control Dandelion (dandelion; Test 2, 7 DAT, 0.02 lbs/A): 88.9% | Control (1-9) Dandelion (dandelion; Test 2, 7 DAT, 0.02 lbs/A): 8 | % Control Dandelion (dandelion; Test 2, 7 DAT, 0.03 lbs/A): 88.9% | Control (1-9) Dandelion (dandelion; Test 2, 7 DAT, 0.03 lbs/A): 8 | % Control Dandelion (dandelion; Test 2, 14 DAT, 0.02 lbs/A): 88.9% | Control (1-9) Dandelion (dandelion; Test 2, 14 DAT, 0.02 lbs/A): 8 | % Control Dandelion (dandelion; Test 2, 14 DAT, 0.03 lbs/A): 88.9% | Control (1-9) Dandelion (dandelion; Test 2, 14 DAT, 0.03 lbs/A): 8 | % Control Dandelion (dandelion; Test 2, 24 HAT, 0.02 lbs/A): 22.2% | Control (1-9) Dandelion (dandelion; Test 2, 24 HAT, 0.02 lbs/A): 2 | % Control Dandelion (dandelion; Test 2, 24 HAT, 0.03 lbs/A): 22.2% | Control (1-9) Dandelion (dandelion; Test 2, 24 HAT, 0.03 lbs/A): 2 | % Control Dandelion (dandelion; Test 2, 72 HAT, 0.02 lbs/A): 44.4% | Control (1-9) Dandelion (dandelion; Test 2, 72 HAT, 0.02 lbs/A): 4 | % Control Dandelion (dandelion; Test 2, 72 HAT, 0.03 lbs/A): 44.4% | Control (1-9) Dandelion (dandelion; Test 2, 72 HAT, 0.03 lbs/A): 4 | % Control Crabgrass (crabgrass; Test 2, 7 DAT, 0.02 lbs/A): 22.2% | Control (1-9) Crabgrass (crabgrass; Test 2, 7 DAT, 0.02 lbs/A): 2 | % Control Crabgrass (crabgrass; Test 2, 7 DAT, 0.03 lbs/A): 22.2% | Control (1-9) Crabgrass (crabgrass; Test 2, 7 DAT, 0.03 lbs/A): 2 | % Control Crabgrass (crabgrass; Test 2, 14 DAT, 0.02 lbs/A): 22.2% | Control (1-9) Crabgrass (crabgrass; Test 2, 14 DAT, 0.02 lbs/A): 2 | % Control Crabgrass (crabgrass; Test 2, 14 DAT, 0.03 lbs/A): 22.2% | Control (1-9) Crabgrass (crabgrass; Test 2, 14 DAT, 0.03 lbs/A): 2 | % Control Crabgrass (crabgrass; Test 2, 24 HAT, 0.02 lbs/A): 33.3% | Control (1-9) Crabgrass (crabgrass; Test 2, 24 HAT, 0.02 lbs/A): 3 | % Control Crabgrass (crabgrass; Test 2, 24 HAT, 0.03 lbs/A): 44.4% | Control (1-9) Crabgrass (crabgrass; Test 2, 24 HAT, 0.03 lbs/A): 4 | % Control Crabgrass (crabgrass; Test 2, 72 HAT, 0.02 lbs/A): 33.3% | Control (1-9) Crabgrass (crabgrass; Test 2, 72 HAT, 0.02 lbs/A): 3 | % Control Crabgrass (crabgrass; Test 2, 72 HAT, 0.03 lbs/A): 33.3% | Control (1-9) Crabgrass (crabgrass; Test 2, 72 HAT, 0.03 lbs/A): 3
